{
  "source": "patent US20030100769A1",
  "about": "“Cyclic amidine compounds” (priority 2000, published 2003)",
  "key": {"[1]": {"target": "T1, α4β2 subtype of nicotinic acetylcholine receptors (Rattus norvegicus, UniProt P09483+P12390)", "T1 construct": "examined using rat brain membrane obtained from whole homogenized brain; from tissue; host or cells: rat whole brain membranes (Fischer-344 male rats)", "T1 sequence (P09483 31-630)": "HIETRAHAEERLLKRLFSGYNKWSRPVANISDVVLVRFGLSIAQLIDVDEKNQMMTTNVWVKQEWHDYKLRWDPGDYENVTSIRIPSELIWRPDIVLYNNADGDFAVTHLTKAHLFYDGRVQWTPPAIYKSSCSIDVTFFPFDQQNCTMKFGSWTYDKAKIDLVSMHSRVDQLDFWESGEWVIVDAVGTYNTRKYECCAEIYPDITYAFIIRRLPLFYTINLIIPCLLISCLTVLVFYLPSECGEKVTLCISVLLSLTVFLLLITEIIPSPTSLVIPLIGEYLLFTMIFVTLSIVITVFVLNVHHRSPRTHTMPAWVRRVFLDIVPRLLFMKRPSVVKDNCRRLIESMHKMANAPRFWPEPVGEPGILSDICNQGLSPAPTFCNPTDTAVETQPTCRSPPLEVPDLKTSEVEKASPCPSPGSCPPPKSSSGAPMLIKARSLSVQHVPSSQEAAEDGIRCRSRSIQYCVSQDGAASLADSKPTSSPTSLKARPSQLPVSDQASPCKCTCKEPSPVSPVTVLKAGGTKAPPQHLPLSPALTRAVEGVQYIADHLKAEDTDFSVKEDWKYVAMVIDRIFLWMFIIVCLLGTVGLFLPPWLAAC", "T1 sequence (P12390 25-500)": "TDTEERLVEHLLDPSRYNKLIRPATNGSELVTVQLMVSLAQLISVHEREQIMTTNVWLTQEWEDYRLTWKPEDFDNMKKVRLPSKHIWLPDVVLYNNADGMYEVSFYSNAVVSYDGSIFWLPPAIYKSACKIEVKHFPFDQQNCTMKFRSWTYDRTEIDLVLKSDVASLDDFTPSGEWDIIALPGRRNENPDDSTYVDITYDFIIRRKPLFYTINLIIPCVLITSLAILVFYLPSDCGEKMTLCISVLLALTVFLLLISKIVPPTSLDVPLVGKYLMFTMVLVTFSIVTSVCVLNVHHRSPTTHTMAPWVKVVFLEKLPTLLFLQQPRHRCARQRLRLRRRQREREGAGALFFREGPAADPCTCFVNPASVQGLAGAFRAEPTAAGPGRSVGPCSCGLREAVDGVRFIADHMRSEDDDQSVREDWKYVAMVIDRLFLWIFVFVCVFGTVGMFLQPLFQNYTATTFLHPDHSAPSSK", "test": "Binding assay at α4β2 subtype of nicotinic acetylcholine receptors ([3H]-cytisine, rat brain membrane)", "excerpt": "(§1) The methods for evaluating the binding capabilities of the compounds at nicotinic acetylcholine receptors are different by subtypes of receptors. The binding capabilities of the compounds at α4β2 nicotinic acetylcholine receptors are examined using rat brain membrane obtained from whole homogenized brain, and determining the inhibiting rate of the compounds against [^3H]-cytisine binding to said brain membrane. Furthermore, the binding capabilities of the compounds at α1β1γδ nicotinic acetylcholine receptors are examined using homogenized rat muscle, and determining the inhibiting rate of the compounds against [^3H]-α-bungarotoxin binding to said muscle homogenate.\nBinding Assays at α4β2 Subtype of Nicotinic Acetylcholine Receptors\n(1) Preparation of Rat Brain Membrane Containing α4β2 Subtype of Nicotinic Acetylcholine Receptors\nRats were housed in the breeding cage controlled of the room temperature at 23±1° C., and the humidity of 55±5% for 1 to 4 weeks. Rats (3 to 4 rats per a cage) were housed with lights on for 12 hours daily (from 7:00 to 19:00), and allowed free access to food and water.\nPreparation of rat brain membrane containing α4β2 subtype of nicotinic acetylcholine receptors was performed as follow. That is, rat brains were isolated just after sacrificed by decapitation, washed with ice-cooled saline solution and then frozen at −80° C. with liquid nitrogen and stored till using. After thawing the frozen brain, the brain was homogenized in 10 volumes of ice-cooled buffer solution (50 mM of Tris-HCl, 120 mM of NaCl, 5 mM of KCl, 1 mM of MgCl2, 2 mM of CaCl2; pH 7.4; 4° C.) using homogenizer (HG30, Hitachi Kohki Ltd.) for 30 seconds, and the homogenate were centrifuged under 1,000×G for 10 minutes at 4° C. The resulting supernatant was separated and the pellet was homogenized again with half volume of aforementioned prior buffer solution and centrifuged under the same conditions. Combined supernatant was further centrifuged under 40,000×G for 20 minutes at 4° C. The pellet was suspended in buffer solution and used for binding assays at receptors.\n(2) Experiments of α4β2 Subtype of Nicotinic Acetylcholine Receptors Binding\nSuspensions of membrane pellets containing 400-600 μg of protein were added to test tubes containing test compounds and [^3H]-cytisine (2 nM) in a final volume of 200 μl and incubated for 75 minutes in ice-cooled bath. The samples were isolated by vacuum filtration onto Whatman GF/B filters, which were prerinsed with 0.5% polyethylenimine just prior to sample filtration, using Brandel multi manifold cell harvester. The filters were rapidly washed with buffer solution (3×1 ml). The filters were counted in 3 ml of clearsol I (Nacalai Tesque Inc.).\nThe analyses of the experimental results were conducted by using the Accufit Competition Program (Beckman Ltd.)."}, "[2]": {"target": "α1β1γδ subtype of nicotinic acetylcholine receptors (Rattus norvegicus, UniProt P18916+P25108+P25109+P25110)", "sequence (P25109 24-501)": "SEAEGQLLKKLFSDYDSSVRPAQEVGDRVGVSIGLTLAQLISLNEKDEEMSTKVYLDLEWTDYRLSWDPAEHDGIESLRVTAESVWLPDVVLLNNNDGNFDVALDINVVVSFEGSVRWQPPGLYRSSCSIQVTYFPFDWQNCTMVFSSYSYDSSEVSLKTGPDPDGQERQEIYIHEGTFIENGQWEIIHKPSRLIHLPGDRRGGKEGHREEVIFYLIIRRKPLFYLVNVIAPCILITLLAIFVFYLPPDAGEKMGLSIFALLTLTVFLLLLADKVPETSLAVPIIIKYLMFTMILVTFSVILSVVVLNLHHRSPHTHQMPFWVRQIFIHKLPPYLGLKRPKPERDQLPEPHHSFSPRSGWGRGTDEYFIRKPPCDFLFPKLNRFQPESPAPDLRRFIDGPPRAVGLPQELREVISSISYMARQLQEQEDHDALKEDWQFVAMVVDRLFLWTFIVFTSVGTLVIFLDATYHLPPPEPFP", "sequence (P25110 22-517)": "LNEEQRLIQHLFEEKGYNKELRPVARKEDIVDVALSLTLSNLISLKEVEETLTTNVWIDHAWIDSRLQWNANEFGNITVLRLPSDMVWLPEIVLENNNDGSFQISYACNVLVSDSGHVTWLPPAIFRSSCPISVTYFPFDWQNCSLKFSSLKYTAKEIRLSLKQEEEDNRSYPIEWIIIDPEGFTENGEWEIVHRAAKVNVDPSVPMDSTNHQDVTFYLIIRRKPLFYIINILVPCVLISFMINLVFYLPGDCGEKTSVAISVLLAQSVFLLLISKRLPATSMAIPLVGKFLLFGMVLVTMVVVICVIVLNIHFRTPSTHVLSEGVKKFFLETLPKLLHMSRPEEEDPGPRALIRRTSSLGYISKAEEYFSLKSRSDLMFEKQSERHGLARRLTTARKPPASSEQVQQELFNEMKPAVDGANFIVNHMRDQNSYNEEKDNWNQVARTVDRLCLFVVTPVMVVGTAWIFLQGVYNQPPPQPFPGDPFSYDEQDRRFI", "sequence (P25108 21-457)": "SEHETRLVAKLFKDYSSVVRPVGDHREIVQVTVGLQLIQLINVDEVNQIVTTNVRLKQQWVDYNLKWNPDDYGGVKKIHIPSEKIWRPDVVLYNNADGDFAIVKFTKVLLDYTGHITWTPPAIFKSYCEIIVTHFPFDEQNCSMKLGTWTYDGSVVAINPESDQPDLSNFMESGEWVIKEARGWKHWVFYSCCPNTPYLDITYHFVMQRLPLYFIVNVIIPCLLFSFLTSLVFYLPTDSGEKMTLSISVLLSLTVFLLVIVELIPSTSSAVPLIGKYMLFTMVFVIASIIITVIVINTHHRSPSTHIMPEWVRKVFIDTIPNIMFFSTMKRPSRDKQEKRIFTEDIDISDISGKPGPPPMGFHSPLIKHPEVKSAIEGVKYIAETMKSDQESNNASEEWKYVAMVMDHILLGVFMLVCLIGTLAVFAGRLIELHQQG", "test": "biochemical", "assay_type": "binding", "excerpt": "as §1\nBinding Assays at α1β1γδ Subtype of Nicotinic Acetylcholine Receptors\nThe affinity of the compounds of the present invention to α1β1γδ subtype of nicotinic acetylcholine receptors was measured by the following method, which was modified method described by Garcha H. S., Thomas P., Spivak C.\n(1) Preparation of Rat Skeletal Muscles Containing α1β1γδ Subtype of Nicotinic Acetylcholine Receptors\nThe substantially same animals described in the Biological Experiment 1 were used.\nThe isolation of α1β1γδ subtype of nicotinic acetylcholine receptors was performed as follow. That is, rat posterior skeletal muscles were isolated just after sacrificed by decapitation, washed with ice-cooled saline solution and then frozen at −80° C. with liquid nitrogen and stored till using. After thawing the frozen muscles, tissue was homogenized ([…]) with buffer solution [2.5 mM of sodium phosphate buffer (pH:7.2), 90 mM of NaCl, 2 mM of KCl, 1 mM of EDTA, 2 mM of benzamidine, 0.1 mM of benzethonium chloride, 0.1 mM of PMSF, 0.01% of sodium azide] in Waring blender (Waring blender 34BL97; WARING PRODUCTS DIVISION DYNAMICS CORPORATION OF AMERICA) for 60 seconds. The homogenate were centrifuged under 20,000×G for 60 minutes at 4° C. The supernatant was separated and the resulting pellet was added to the same buffer (1.5 ml/g wet weight), and homogenized under the same conditions. Triton X100 (2% w/v) was added and the mixture was stirred for 3 hours at 4° C. The centrifugation at 100,000×G for 60 minutes at 4° C. yielded the rat muscle extract as supernatant. This was stored at 4° C. for up to 4 weeks, and used for binding assays at receptors.\n(2) Experiments of α1β1γδ Subtype of Nicotinic Acetylcholine Receptors Binding\nReceptors binding experiments were performed as follow. That is, the extract of rat muscle containing 600-900 μg of protein was added to test tubes containing test compounds and incubated for 15 minutes at 37° C. Then, to this mixture was added 1 nM of [^3H]-α-bungarotoxin (α-Bgt) and further incubated for 2 hours. The samples were isolated by vacuum filtration onto Whatman GF/B filters, which were prerinsed with 0.5% polyethylenimine just prior to sample filtration, using Brandel multi manifold cell harvester. The filters were rapidly rinsed with washing solution (10 mM of KH2PO4, 150 mM of NaCl, pH 7.2, room temperature) (5×1 ml). The filters were counted in 3 ml of clearsol I (Nacalai Tesque Inc.). The determination of nonspecific binding was incubated in the presence of 1 μM α-Bgt. […] In the receptor binding experiments, said buffer solution was added for adjusting the final concentration of BSA to be 0.05%.\nThe analyses of the experimental results were conducted by the same way as described in the Biological Experiment 1."}, "[3]": {"target": "T2, human α4β2 subtype of nicotinic acetylcholine receptors (Homo sapiens, UniProt P17787+P43681)", "T2 construct": "expressed in transfected cells; host or cells: Xenopus laevis oocytes injected with hnACh-R α4 and β2 cRNA (pSP64 polyA)", "T2 sequence (P43681 29-627 limits assumed)": "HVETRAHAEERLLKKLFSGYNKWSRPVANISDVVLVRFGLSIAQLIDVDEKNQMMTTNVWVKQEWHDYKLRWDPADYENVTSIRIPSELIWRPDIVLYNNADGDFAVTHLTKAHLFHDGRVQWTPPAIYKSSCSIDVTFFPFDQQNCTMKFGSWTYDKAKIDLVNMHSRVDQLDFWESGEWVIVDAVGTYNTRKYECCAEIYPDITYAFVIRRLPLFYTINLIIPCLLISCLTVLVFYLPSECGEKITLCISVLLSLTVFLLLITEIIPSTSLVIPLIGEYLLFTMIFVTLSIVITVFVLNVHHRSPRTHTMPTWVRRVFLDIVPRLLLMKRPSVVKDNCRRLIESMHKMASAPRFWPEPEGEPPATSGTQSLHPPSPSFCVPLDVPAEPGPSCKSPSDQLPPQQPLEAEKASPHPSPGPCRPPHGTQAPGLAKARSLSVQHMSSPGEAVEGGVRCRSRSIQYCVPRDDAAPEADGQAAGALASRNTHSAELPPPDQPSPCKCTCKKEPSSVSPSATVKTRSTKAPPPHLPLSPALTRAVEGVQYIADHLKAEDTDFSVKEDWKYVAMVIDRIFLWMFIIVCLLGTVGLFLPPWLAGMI", "T2 sequence (P17787 26-502)": "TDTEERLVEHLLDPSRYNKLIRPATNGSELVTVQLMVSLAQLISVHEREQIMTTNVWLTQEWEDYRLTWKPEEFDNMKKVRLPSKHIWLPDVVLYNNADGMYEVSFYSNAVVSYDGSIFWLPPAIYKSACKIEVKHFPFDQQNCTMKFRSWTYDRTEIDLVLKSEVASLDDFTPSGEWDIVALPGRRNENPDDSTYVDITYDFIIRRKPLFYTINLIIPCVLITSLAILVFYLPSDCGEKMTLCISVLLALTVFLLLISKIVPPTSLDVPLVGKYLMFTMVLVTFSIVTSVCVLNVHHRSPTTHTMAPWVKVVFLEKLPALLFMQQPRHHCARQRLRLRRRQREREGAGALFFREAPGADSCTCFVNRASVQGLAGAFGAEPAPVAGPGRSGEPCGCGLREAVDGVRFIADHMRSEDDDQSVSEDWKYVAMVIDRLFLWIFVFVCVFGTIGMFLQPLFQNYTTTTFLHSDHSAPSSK", "test": "Agonist activities at human α4β2 subtype of nicotinic acetylcholine receptors expressed in Xenopus oocytes (membrane potential holding method)", "assay_type": "cell-based", "conditions": "100 μM test compound, relative to 10 μM acetylcholine (100%)", "description": "The agonist effect in human α4β2 subtype of nicotinic acetylcholine receptors are examined by using human nicotinic acetylcholine receptors prepared in oocytes of Xenopus laevis, which is injected with cRNA from the corresponding cloning cDNA of human α4 and β2 subunits of nicotinic acetylcholine receptors, and to measure the expression of the electric response by adding the test compounds to perfusion solution by means of membrane potential holding method.\nAgonist Activities at Human α4β2 Subtype of Nicotinic Acetylcholine Receptors\n(1) Preparation of cRNA of Human α4β2 Subtype of Nicotinic Acetylcholine Receptors\nThe obtained hnACh-R α4 cDNA and hnACh-R β2 cDNA were inserted to the cRNA expression vector (pSP64 polyA) having SP6 RNA promoter to construct hnACh-R α4/pSP64 polyA and hnACh-R β2/pSP64 polyA, respectively. After cutting from expression vector by restriction enzyme (EcoRI), transcription was performed by affecting SP6 RNA polymerase in the presence of cap analogues to obtain hnACh-R α4 cRNA and hnACh-R β2 cRNA, respectively.\n(2) Expression of Human α4β2 Subtype Nicotinic Acetylcholine Receptors in Xenopus Oocytes\nOocytes were purchased from Kitanihonseibutsukyohzai Co., Ltd., which were already enucleated from Xenopus laevis, and used in this experiment.\nThe oocytes were treated with collagenase (Sigma type I; 1 mg/ml) in calcium-free modified Birth's solution (88 mM of NaCl, 1 mM of KCl, 2.4 mM of NaHCO3, 0.82 mM of MgSO4, 15 mM of HEPES, pH 7.6) under gently stirring at room temperature for 90 minutes, and washed out the enzyme from the tissue. Then, oocytes were separated from ovarian follicle by tweezers, and isolated oocytes were placed in antibiotics containing modified Birth's solution (88 mM of NaCl, 1 mM of KCl, 2.4 mM of NaHCO3, 0.82 mM of MgSO4, 15 mM of HEPES, pH 7.6, and 0.1 v/v % of mixture solution containing of penicillin and streptomycin for incubation; Sigma Co.). […] In oocytes, heterogeneous quintuple [(α4)2(β2)3] was composed by translation of injected cRNAs, and ion channel receptors were constructed on cell membrane.\n(3) Agonist Activities at Human α4β2 Subtype of Nicotinic Acetylcholine Receptors\nThe recordings of responses at human α4β2 subtype of nicotinic acetylcholine receptors by means of membrane potential holding method were performed as follow. […] Test compounds were added to the perfusion solution, and recorded the peak strength of induced inward current. In order to normalize the responses of test compounds, the responses with acetylcholine (Ach) were recorded before and after application of the test compounds. Generally in the oocytes just after isolated, the response of intrinsic muscarinic acetylcholine receptors, which is inward current caused by activation of calcium dependence chloride ion channels with increase of the intracellular calcium concentration by stimulation of receptors, is observed. […] Therefore, the responses observed in oocytes with injection of hnACh-R α4 cRNA and hnACh-R β2 cRNA, i.e., the inward current induced by the intracellular influx of sodium ion according to the stimulation of receptors, would be the freshly observed responses of human α4β2 subtype nicotinic acetylcholine receptors."}},
  "data": [
    {"smiles": "Clc1ccc(CN2C=NCCC2)cn1", "note": "[Compound 27, 1-(6-chloro-3-pyridyl)methyl-1,4,5,6-tetrahydropyrimidine]", "values": [
      {"measurement": "Ki", "setting": "[1]", "value": 2, "unit": "nM"},
      {"measurement": "Ki", "setting": "[2]", "value": 45, "unit": "µM"},
      {"measurement": "Agonist activity: control % by response at 100 μM of the test compound", "setting": "[3]", "value": "(18.0%)"}
    ]},
    {"smiles": "Cc1ccc(CC2=NCCN2)cn1", "note": "[Compound 45, 2-(6-methyl-3-pyridyl)methyl-2-imidazoline]", "values": [
      {"measurement": "Agonist activity: control % by response at 100 μM of the test compound", "setting": "[3]", "value": "(12.0%)"}
    ]},
    {"smiles": "Cc1ccc(CN2C=NCCC2)cn1", "note": "[Compound 57, 1-(6-methyl-3-pyridyl)methyl-1,4,5,6-tetrahydropyrimidine]", "values": [
      {"measurement": "Ki", "setting": "[1]", "value": 12, "unit": "nM"},
      {"measurement": "Ki", "setting": "[2]", "value": 86, "unit": "µM"},
      {"measurement": "Agonist activity: control % by response at 100 μM of the test compound", "setting": "[3]", "value": "(9.1%)"}
    ]},
    {"smiles": "C1=NCCCN1Cc1cccnc1", "note": "[Compound 58, 1-(3-pyridyl)methyl-1,4,5,6-tetrahydropyrimidine]", "values": [
      {"measurement": "Ki", "setting": "[1]", "value": 6.9, "unit": "nM"},
      {"measurement": "Ki", "setting": "[2]", "value": 32, "unit": "µM"},
      {"measurement": "Agonist activity: control % by response at 100 μM of the test compound", "setting": "[3]", "value": "(27.9%)"}
    ]},
    {"smiles": "CC1=NCCN1CCc1ccc(Cl)nc1", "note": "[Compound 62, 1-[2-(6-chloro-3-pyridyl)ethyl]-2-methyl-2-imidazoline]", "values": [
      {"measurement": "Ki", "setting": "[1]", "value": 70, "unit": "nM"},
      {"measurement": "Ki", "setting": "[2]", "value": 639, "unit": "µM"},
      {"measurement": "Agonist activity: control % by response at 100 μM of the test compound", "setting": "[3]", "value": "(9.6%)"}
    ]}
  ]
}
